Test results published in paper PMC8582576, “New Therapeutic Strategy for Overcoming Multidrug Resistance in Cancer Cells with Pyrazolo[3,4-d]pyrimidine Tyrosine Kinase Inhibitors” (Cancers, 2021).
“And” between values parts separate entries of the source, which are not always exact repeats. Equal values may be shown once. “Also recorded” adds a separate entry of the source.

Tests used:
DLD1-TxR [1] = assay: MTT cell viability assay, DLD1-TxR; assay type: cell-based; settings: Homo sapiens, DLD1-TxR (MDR), 72 h, read-out: Decrease in cell viability, IC50
Method: (§1) The metabolic activity of viable cells was measured by MTT assay. Cells grown in 25 cm^2 tissue flasks were trypsinized, seeded into flat-bottomed 96-well tissue culture plates, and incubated overnight. Subsequently, the cells were treated with increasing concentrations of Si306, pro-Si306, and dasatinib (1–25 μM), as well as with Si221 and pro-Si221 (2.5–50 μM) for 72 h. In addition, the combined effects of Si306, pro-Si306, and pro-Si221with DOX as well as with PTX were studied in NCI-H460/R and DLD1-TxR cells, respectively. In simultaneous treatments that lasted 72 h in NCI-H460/R and DLD1-TxR cells, two concentrations of Si306, pro-Si306, and pro-Si221 (0.2 μM and 0.5 μM) were combined with increasing concentrations of DOX and PTX (0.1–2 μM). After treatment, MTT was added to each well at a final concentration of 0.2 mg/mL for 3 h. Then, formazan produced in cells with intact/viable mitochondria was dissolved in 200 μL of DMSO, and the absorbance was measured at 570 nm on a Multiskan Sky Microplate Spectrophotometer (ThermoFisher Scientific, United States). The IC50 value is defined as the concentration of a drug that decreases cell viability by 50% and was calculated by nonlinear regression analysis using GraphPad Prism 6.0 for Windows (La Jolla, CA, USA). Relative reversal was calculated as a relation between the IC50 values of DOX and PTX alone obtained in NCI-H460/R and DLD1-TxR cells, respectively and the IC50 values of DOX and PTX in combination with Pro-Si306 and Pro-Si221.

NCI-H460/R [2] = assay: MTT assay, reversal of DOX resistance in NCI-H460/R cells; assay type: cell-based, human; settings: for Relative Reversal of DOX resistance: IC50 DOX alone / IC50 in combination
Method: as §1

P-gp expression [3] = assay: Flow cytometric analysis of P-gp expression in DLD1-TxR cells; assay type: cell-based, human; settings: 48-h treatment, Si306, pro-Si306 5 and 10 µM, pro-Si221 1 and 2 µM, TQ 5 and 10 nM
Method: (§2) The P-gp expression level in NCI-H460/R and DLD1-TxR was measured by flow cytometry. […] After 48 h, cells were collected by trypsinization, washed in PBS, and then directly immuno stained by FITC-conjugated anti-P-gp antibody according to the manufacturer’s protocol.

NCI-H460 = assay: MTT cell viability assay, NCI-H460; assay type: cell-based; settings: Homo sapiens, 72 h, read-out: Decrease in cell viability, IC50
Method: as §1

NCI-H460/R [4] = assay: MTT cell viability assay, NCI-H460/R; assay type: cell-based, human; settings: for IC50: Homo sapiens, NCI-H460/R (MDR), MTT, 72 h, read-out: Decrease in cell viability, IC50; for fold lower IC50 in MDR NCI-H460/R than in sensitive NCI-H460 cells: NCI-H460/R vs NCI-H460, MTT
Method: as §1

P-gp [5] = biological target: T1, P-gp (Homo sapiens, UniProt P08183); assay: Rho 123 accumulation assay (P-gp activity) in NCI-H460/R cells; settings: for IC50: IC50 for P-gp inhibition, Rho123 accumulation, 30 min; for IC50 / P-gp inhibition by Rho 123 intracellular accumulation / kinetics of P-gp inhibition (Rho123 accumulation): NCI-H460/R; for P-gp inhibition by Rho 123 intracellular accumulation: 10 µM, 30-min treatment, compared with Dex-VER; for kinetics of P-gp inhibition (Rho123 accumulation): 24-, 48-, 96-, 168-h treatments, 10 µM pro-Si306, pro-Si221, 5 and 10 nM TQ
T1 sequence (P08183 whole entry): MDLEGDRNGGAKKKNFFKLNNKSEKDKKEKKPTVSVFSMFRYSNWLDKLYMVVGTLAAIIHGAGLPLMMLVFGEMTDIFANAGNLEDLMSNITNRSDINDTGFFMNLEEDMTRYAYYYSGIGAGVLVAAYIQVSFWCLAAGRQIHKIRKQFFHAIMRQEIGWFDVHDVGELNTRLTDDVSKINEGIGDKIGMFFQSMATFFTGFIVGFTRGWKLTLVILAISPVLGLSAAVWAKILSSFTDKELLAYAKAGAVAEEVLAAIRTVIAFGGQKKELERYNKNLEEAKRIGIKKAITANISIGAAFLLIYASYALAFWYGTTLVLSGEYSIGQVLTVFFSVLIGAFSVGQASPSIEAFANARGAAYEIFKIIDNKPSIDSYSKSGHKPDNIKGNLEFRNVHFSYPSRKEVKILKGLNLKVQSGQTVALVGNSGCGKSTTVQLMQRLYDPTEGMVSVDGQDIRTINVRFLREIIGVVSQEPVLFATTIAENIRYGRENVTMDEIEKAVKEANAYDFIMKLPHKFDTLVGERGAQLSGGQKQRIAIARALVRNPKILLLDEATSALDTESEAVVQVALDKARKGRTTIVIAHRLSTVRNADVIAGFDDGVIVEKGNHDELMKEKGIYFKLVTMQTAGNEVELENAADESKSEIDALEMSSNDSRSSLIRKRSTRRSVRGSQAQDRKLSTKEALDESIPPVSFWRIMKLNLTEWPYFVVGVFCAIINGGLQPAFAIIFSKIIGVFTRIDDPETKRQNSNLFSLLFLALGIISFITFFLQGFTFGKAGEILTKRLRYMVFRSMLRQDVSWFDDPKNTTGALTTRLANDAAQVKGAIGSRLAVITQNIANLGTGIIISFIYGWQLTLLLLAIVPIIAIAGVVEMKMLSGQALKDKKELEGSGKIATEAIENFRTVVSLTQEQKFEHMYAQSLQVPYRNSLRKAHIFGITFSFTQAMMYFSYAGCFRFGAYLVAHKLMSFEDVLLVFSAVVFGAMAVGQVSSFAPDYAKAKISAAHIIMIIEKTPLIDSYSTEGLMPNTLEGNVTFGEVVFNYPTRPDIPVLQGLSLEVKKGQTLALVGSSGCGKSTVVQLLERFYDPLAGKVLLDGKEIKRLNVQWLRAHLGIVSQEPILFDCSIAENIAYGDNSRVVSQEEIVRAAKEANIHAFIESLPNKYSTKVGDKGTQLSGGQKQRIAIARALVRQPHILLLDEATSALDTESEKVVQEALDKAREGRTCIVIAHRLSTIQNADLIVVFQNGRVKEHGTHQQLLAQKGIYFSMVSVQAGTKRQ
Method: (§3) The accumulation of fluorescent P-gp substrate Rho 123 was analyzed by flow cytometry. The intensity of fluorescence was proportional to Rho 123 accumulation in the cell. […] NCI-H460 and DLD1 cells were used as a positive control for Rho 123 accumulation. All cell lines were seeded in adherent 6-well plates and grown overnight. In simultaneous treatment that lasted 30 min, 5 μM Rho 123 was applied along with 10 μM of Si306, pro-Si306, Si221, pro-Si221, dasatinib, and Dex-VER. […] Samples were incubated for 30 min at 37 °C in 5% CO2. […] At the end of the accumulation period, the cells were trypsinized, pelleted by centrifugation, washed with PBS, and placed in ice-cold PBS. The samples were kept on ice in the dark until analysis on a CyFlow Space Partec flow cytometer (Sysmex Partec GmbH, Görlitz, Germany). The fluorescence of Rho 123 was detected on fluorescence channel 1 (FL1-H) at 530 nm. Three independent experiments were performed for each experimental setting. A minimum of 10,000 events was assayed for each sample, and the obtained results were analyzed using Summit Dako Software (ver. 4.3, Fort Collins, CO, USA).

P-gp [6] = biological target: T1, P-gp; assay: Rho 123 accumulation assay (P-gp activity) in DLD1-TxR cells; settings: for P-gp inhibition by Rho 123 intracellular accumulation / kinetics of P-gp inhibition (Rho123 accumulation) / IC50: DLD1-TxR; for P-gp inhibition by Rho 123 intracellular accumulation: 10 µM, 30-min treatment, compared with Dex-VER; for kinetics of P-gp inhibition (Rho123 accumulation): 24-, 48-, 96-, 168-h treatments, 10 µM pro-Si306, 1 and 2 µM pro-Si221, 5 and 10 nM TQ; for IC50: IC50 for P-gp inhibition, Rho123 accumulation, 30 min
Method: as §3

[7] = tested on: NCI-H460, NCI-H460/R, DLD1, DLD1-TxR; assay: MTT cell viability assay, two sensitive/MDR cancer cell line pairs; assay type: cell-based; settings: Homo sapiens, summary over the four cell lines, 72 h
Method: as §1

P-gp [8] = biological target: T1, P-gp; assay: P-gp ATPase activity assay (Pgp-Glo); assay type: biochemical; parameters: purchased Promega, Madison, WI, USA; settings: 5 µM and 20 µM; verapamil positive control
Method: P-gp function depends on ATP hydrolysis energy, and compounds that interact with P-gp can stimulate or inhibit its ATPase activity. P-gp ATPase activity is usually stimulated by its substrates. The Pgp-GloTM assay system detects a compound’s effect on recombinant human P-gp in a cell membrane fraction. P-gp ATPase activity was measured using the luminescent Pgp-Glo^TM assay kit according to manufacturer’s instructions. Briefly, ATP was first incubated with P-gp; then, the P-gp ATPase reaction was stopped, and the remaining un-metabolized ATP was detected as a luciferase-generated luminescent signal. P-gp-dependent decreases in luminescence reflect ATP consumption by P-gp; thus, the greater the decrease in signal, the higher the P-gp activity. […] Na3VO4 is a noncompetitive inhibitor of P-gp ATPase activity. The difference in the luminescent signal, expressed as relative light units (RLU), between Na3VO4-treated samples and untreated samples represents the basal P-gp ATPase activity (ΔRLU basal). The difference in the luminescent signal between Na3VO4-treated samples and samples treated with the tested compounds represents P-gp ATPase activity in the presence of the tested compounds. […] The luminescence of samples treated with 5 μM and 20 μM of Si306, pro-Si306, and pro-Si221 was measured using a luminometer microplate reader (CHAMELEONTMV, Hidex, Turku, Finland).

DLD1-TxR [9] = assay: MTT assay, reversal of PTX resistance in DLD1-TxR cells; assay type: cell-based, human; settings: for Relative Reversal of PTX resistance: IC50 PTX alone / IC50 in combination
Method: as §1

DLD1 = assay: MTT cell viability assay, DLD1; assay type: cell-based; settings: Homo sapiens, DLD-1, 72 h, read-out: Decrease in cell viability, IC50
Method: as §1

P-gp expression [10] = assay: Flow cytometric analysis of P-gp expression in NCI-H460/R cells; assay type: cell-based, human; settings: 48-h treatment, Si306, pro-Si306 5 and 10 µM, pro-Si221 1 and 2 µM, TQ 5 and 10 nM
Method: as §2

Compound | IC50 (DLD1-TxR [1]) [µM] | effect on P-gp expression (protein level) (P-gp expression [3]) | IC50 (NCI-H460) [µM] | IC50 (NCI-H460/R [4]) [µM] | IC50 (P-gp [5]) | P-gp inhibition by Rho 123 intracellular accumulation (P-gp [5]) | kinetics of P-gp inhibition (Rho123 accumulation) (P-gp [5]) | P-gp inhibition by Rho 123 intracellular accumulation (P-gp [6]) | kinetics of P-gp inhibition (Rho123 accumulation) (P-gp [6]) | IC50 (P-gp [6]) | IC50 [7] [µM] | effect on ATPase activity of P-gp (P-gp [8]) | IC50 (DLD1) [µM] | effect on P-gp expression (protein level) (P-gp expression [10]) | further results
CN1CCN(CCOC(=O)N(Cc2ccccc2Cl)c2ncnc3c2cnn3CC(Cl)c2ccc(Br)cc2)CC1 (stereo not drawn) [Pro-Si221] | 5.7 ± 0.543 | tendency to decrease the P-gp expression | 4.27 ± 0.509 | 5.14 ± 0.573 | 612 ± 72 nM | considerably more potent than that observed with Dex-VER | continued to decrease until 48 h when it reached stability and was sustained even after 168 h | considerably more potent than that observed with Dex-VER | decline until 96 h when it reached stable P-gp inhibition | 669 ± 61 nM | < 10 | potential to inhibit the ATPase activity of P-gp; also recorded: highest inhibitory effect on ATPase activity | 9.8 ± 1.15 | less pronounced effect on the increase in P-gp expression | Relative Reversal of DOX resistance (NCI-H460/R [2]; SFK inhibitor 0.2 µM): 1.8; Relative Reversal of DOX resistance (NCI-H460/R [2]; SFK inhibitor 0.5 µM): 7.1; inhibition at 30 min, 1 µM (P-gp [5]; human, NCI-H460/R cells, probe Rho 123 (5 µM)): 100%; inhibition at 30 min, 1 µM (P-gp [6]; human, DLD1-TxR cells, probe Rho 123 (5 µM)): 100%; Relative Reversal of PTX resistance (DLD1-TxR [9]; SFK inhibitor 0.2 µM): 2.0; Relative Reversal of PTX resistance (DLD1-TxR [9]; SFK inhibitor 0.5 µM): 3.2
CN1CCN(CCOC(=O)N(c2cccc(Br)c2)c2nc(SCCN3CCOCC3)nc3c2cnn3CC(Cl)c2ccccc2)CC1 (stereo not drawn) [Pro-Si306] | 1.87 ± 0.128 | tendency to decrease the P-gp expression | 2.41 ± 0.376 | 0.897 ± 0.102 | 6200 nM and 6170 nM | considerably more potent than that observed with Dex-VER | reached stability after 96 h | considerably more potent than that observed with Dex-VER | reached stability after 96 h | 3000 nM and 2950 nM | < 10 | potential to inhibit the ATPase activity of P-gp | 2.45 ± 0.346 | less pronounced effect on the increase in P-gp expression | Relative Reversal of DOX resistance (NCI-H460/R [2]; SFK inhibitor 0.2 µM): 3.2; Relative Reversal of DOX resistance (NCI-H460/R [2]; SFK inhibitor 0.5 µM): 10.2; fold lower IC50 in MDR NCI-H460/R than in sensitive NCI-H460 cells (NCI-H460/R [4]): more than 2 fold; Relative Reversal of PTX resistance (DLD1-TxR [9]; SFK inhibitor 0.2 µM): 1.5; Relative Reversal of PTX resistance (DLD1-TxR [9]; SFK inhibitor 0.5 µM): 2.5
Cc1nc(Nc2ncc(C(=O)Nc3c(C)cccc3Cl)s2)cc(N2CCN(CCO)CC2)n1 [Dasatinib, reference compound] | 2.9 ± 0.223 | – | 3.93 ± 0.295 | 6.88 ± 0.605 | – | did not show potential to inhibit P-gp | – | – | – | – | < 10 | – | 3.24 ± 0.411 | – | –
COc1cccc2c1C(=O)c1c(O)c3c(c(O)c1C2=O)C[C@@](O)(C(=O)CO)C[C@@H]3O[C@H]1C[C@H](N)[C@H](O)[C@H](C)O1 [DOX, doxorubicin, reference compound] | – | – | – | – | – | – | – | – | – | – | – | – | – | – | IC50 (NCI-H460/R [2]; Homo sapiens, MTT, 72 h, read-out: IC50 of DOX alone): 0.905 ± 0.0444 µM
Clc1ccccc1CNc1ncnc2c1cnn2CC(Cl)c1ccc(Br)cc1 (stereo not drawn) [Si221] | 11.6 ± 1.29 | – | 14.6 ± 1.48 | 18.1 ± 2.08 | – | did not modulate the activity of P-gp | – | did not modulate the activity of P-gp | – | – | – | – | 34.1 ± 2.32 | – | –
ClC(Cn1ncc2c(Nc3cccc(Br)c3)nc(SCCN3CCOCC3)nc21)c1ccccc1 (stereo not drawn) [Si306] | 2.56 ± 0.183 | tendency to decrease the P-gp expression | 6.24 ± 0.685 | 1.89 ± 0.184 | 13300 nM | considerably more potent than that observed with Dex-VER | – | considerably more potent than that observed with Dex-VER | – | 6400 nM and 6440 nM | < 10 | potential to inhibit the ATPase activity of P-gp | 3.93 ± 0.679 | significantly increased P-gp expression | fold lower IC50 in MDR NCI-H460/R than in sensitive NCI-H460 cells (NCI-H460/R [4]): more than 2 fold
CC(=O)O[C@H]1C(=O)[C@@]2(C)[C@H]([C@H](OC(=O)c3ccccc3)[C@]3(O)C[C@H](OC(=O)[C@H](O)[C@@H](NC(=O)c4ccccc4)c4ccccc4)C(C)=C1C3(C)C)[C@]1(OC(C)=O)CO[C@@H]1C[C@@H]2O [PTX, paclitaxel, reference compound] | – | – | – | – | – | – | – | – | – | – | – | – | – | – | IC50 (DLD1-TxR [9]; Homo sapiens, MTT, 72 h, read-out: IC50 of PTX alone): 1.05 ± 0.115 µM
COc1cc2c(cc1OC)CN(CCc1ccc(NC(=O)c3cc(OC)c(OC)cc3NC(=O)c3cnc4ccccc4c3)cc1)CC2 [TQ, tariquidar, reference compound] | – | increased the expression of P-gp | – | – | – | – | reached stable P-gp inhibition after 48 h that was sustained until 168 h | – | reached stable P-gp inhibition after 48 h that was sustained until 168 h | – | – | – | – | increased the expression of P-gp | IC50 (P-gp [5]; TQ values in nM (footnote a)): 1.07 ± 0.174 nM; IC50 (P-gp [6]; TQ values in nM (footnote a)): 0.925 ± 0.155 nM
